Assay results published in patent US20100178365A1, “EPICATECHIN DEFICIENT GREEN TEA” (priority 2007, published 2010).

How the values were obtained:
KATP channels = experiment: inhibition of KATP channels and their ATP/PIP sensitivity; type: biochemical; conditions: for effect on KATP channels: via allosteric interactions with phospholipids of the lipid membrane
Protocol: EGCG and ECG with gallate ester groups inhibited KATP channels via allosteric interactions with phospholipids of the lipid membrane. But the effective EGCG concentration was more than 10 μM. Further, EGCG is the only green tea epicatechin that decreases the sensitivity of ATP and PIP to the KATP channel. By this mechanism, we concluded that EGCG caused decrease in insulin secretion in response to glucose in the β-cell of pancreas. Patients with diabetes or people with a risk factor for diabetes should be careful because the effective concentration of EGCG for this mechanism could be 1-10 μM, which is an achievable concentration when a person drinks 2-8 cups of green tea while fasting.

[1] = system: cultured adipocytes, myocytes and hepatocytes; experiment: glucose uptake ability at cultured cells (FIG. 3); type: cell-based; conditions: for normal glucose uptake mechanism after a meal: hepatocytes, adipocytes and muscle cells
Description: We can see that basal glucose uptake ability and insulin stimulated glucose uptake ability decreased based on the given EGCG concentration.

[2] = intraperitoneal glucose tolerance test after intravenous epicatechin (FIG. 1); type: in vivo; conditions: rats; epicatechin intravenously 30 min before glucose loading 2 g/kg
Protocol: Each epicatechin was injected intravenously 30 min before the glucose loading.

[3] = adipocytes, myocytes and hepatocytes, based on the given EGCG concentration

Compound	effect on KATP channels (KATP channels)	normal glucose uptake mechanism after a meal [1]	blood glucose concentration during intraperitoneal glucose tolerance test [2]	effective concentration for KATP channel inhibition (KATP channels)	sensitivity of ATP and PIP to the KATP channel (KATP channels)	effective concentration for decreasing ATP and PIP sensitivity of the KATP channel (KATP channels; stated as 'could be') [µM]	blood EGCG level at which the glucose uptake inhibition can occur [1]	basal glucose uptake ability [1, 3]	insulin stimulated glucose uptake ability [1, 3]
O=C(O[C@@H]1Cc2c(O)cc(O)cc2O[C@@H]1c1ccc(O)c(O)c1)c1cc(O)c(O)c(O)c1 [ECG, (−)-epicatechin-3-gallate]	inhibited	inhibited	High blood glucose level	–	–	–	–	–	–
O=C(O[C@@H]1Cc2c(O)cc(O)cc2O[C@@H]1c1cc(O)c(O)c(O)c1)c1cc(O)c(O)c(O)c1 [EGCG, (−)-epigallocatechin-3-gallate]	inhibited	inhibited	High blood glucose level	more than 10 μM	decreases	1 to 10	lower than 10 μM	decreased	decreased
